Results: article PMC9025560, “A Comparison of Evans Blue and 4-(p-Iodophenyl)butyryl Albumin Binding Moieties on an Integrin αvβ6 Binding Peptide” (Pharmaceutics, 2022)
“And” between values parts separate entries of the source, which are not always exact repeats. Identical values can stand only once. Like-named read-outs stand apart in the source and are kept apart here.

Legend:
[1] = tested on: prostate specific membrane antigen (PSMA); settings: cited from earlier work
[2] = tested on: BxPC-3 xenograft tumors; test: Biodistribution in mice bearing BxPC-3 xenograft tumors; type: in vivo; settings: 4 h p.i.; for Blood uptake / Bone uptake / Brain uptake / BxPC-3 Tumor uptake / Fecal Matter radioactivity / Gall Bladder uptake / Heart uptake / Kidneys uptake / Lg. Intestines uptake / Liver uptake / Lung uptake / Muscle uptake / Pancreas uptake / Skin uptake / Sm. Intestines uptake / Spleen uptake / Stomach uptake / Urine radioactivity: i.v.
Procedure: All animal procedures conformed to the Animal Welfare Act and were approved by the University of California, Davis Institutional Animal Care and Use Committee. Female athymic nu/nu-nude mice (6–8 weeks old) were purchased from Charles River Laboratories (Wilmington, MA, USA) and provided food and water on an ad libitum basis. BxPC-3 xenografts were implanted according to previous methods. Briefly, BxPC-3 cells were evaluated by flow cytometry to confirm integrin αvβ6 expression levels, injected subcutaneously into the left flank [5 million in 100 μL of a 1:1 mixture of serum-free RPMI and GFR Matrigel (Corning, New York, NY, USA)], and allowed to grow for approximately 3 weeks until tumors reached a diameter of 0.5–1 cm.
For biodistribution studies the [^64Cu]1–4 (3.7–5.55 MBq) in PBS (100 μL, pH 7.2) was injected intravenously (i.v.) via catheter into the tail vein. Following a conscious uptake period, the mice were anesthetized (5% isoflurane), euthanized, and dissected ([^64Cu]1 and [^64Cu]2, n = 3/radiolabeled peptide/time point; 4, 24, and 48 h p.i.; the 72 h time point was obtained from the imaging animals after the 72 h PET/CT scans; compounds [^64Cu]3 and [^64Cu]4, n = 2/radiolabeled compound at 4 h p.i.). Tissues were rapidly collected, weighed, and radioactivity measured with a γ-counter. Decay-corrected radioactivity concentrations are expressed as the percentage of injected dose per gram of tissue (% ID/g). Data are reported as mean ± standard deviation (SD) (Figure S20, S21 and S25).

[3] = parameters: method as in PMID 23236020, PMID 28094532; settings: cited from earlier work
[4] = target: T1, integrin αvβ6 (Homo sapiens, UniProt P06756+P18564); parameters: method as in PMID 34783573; settings: competitive ELISA against biotinylated LAP; read-out: IC50, integrin αvβ6 affinity; cited from earlier work
T1 construct: purchased R&D Systems

[5] = target: T1, integrin αvβ6; test: Integrin αvβ6 affinity competitive binding ELISA against biotinylated LAP
Procedure: Affinity for the integrin αvβ6 was determined by competitive binding ELISA of [^NatCu]1 and [^NatCu]2 against biotinylated-LAP (G&P Biosciences, Santa Clara, CA, USA) as previously described to determine the half-maximum inhibitory concentration (IC50). Briefly, in a 96 well Nunc Immuno maxisorp plate, capturing anti-αv antibody (P2W7, 5 μg/mL, Abcam, MA, USA) was plated (50 μL/well) at 37 °C for 1 h, washed with PBS (3×), and blocked overnight with blocking buffer (300 μL/well, 0.5% non-fat dry milk powder (w/v), 1% Tween 20, in PBS). It was then washed with wash buffer that consisted of 2 mmol/L of Tris buffer (pH = 7.6), 150 mmol/L sodium chloride, 1 mmol/L manganese chloride, and 0.1% Tween 20 (v/v) in deionized water (3×). […] The ExtrAvidin HRP was detected with TMB One solution (50 μL/well; Promega Corp., Madison, WI, USA) for 10–15 min at room temperature. The reaction was stopped by adding 1N sulfuric acid (H2SO4, 50 μL/well; EMD, MA, USA) and the absorbance was measured in a Multiscan Ascent plate reader (Thermo Fisher, Waltham, MA, USA) at 450 nm. Half-maximal inhibitory concentration (IC50) of peptides was determined by fitting to sigmoidal dose-response model in GraphPad Prism 8.0 (GraphPad, CA, USA). […]

[6] = parameters: method as in PMID 32383076, PMID 24267053; settings: cited from earlier work
[7] = tested on: BxPC-3 xenograft tumors; parameters: method as in PMID 34783573; settings: cited from earlier work
[8] = tested on: human serum protein; parameters: method as in PMID 34783573; settings: either serum albumin (human); cited from earlier work
[9] = tested on: mouse serum protein; parameters: method as in PMID 34783573; settings: either serum albumin (mouse); cited from earlier work
[10] = parameters: method as in PMID 26771036, PMID 26251416; settings: cited from earlier work
[11] = tested on: U87MG glioblastoma tumor model; settings: cited from earlier work
[12] = tested on: somatostatin receptor; settings: cited from earlier work; for Tumor accumulation: 24 h
[13] = parameters: method as in PMID 29653971; settings: clinical trials; cited from earlier work

T1 sequence (P06756 31-992 limits assumed): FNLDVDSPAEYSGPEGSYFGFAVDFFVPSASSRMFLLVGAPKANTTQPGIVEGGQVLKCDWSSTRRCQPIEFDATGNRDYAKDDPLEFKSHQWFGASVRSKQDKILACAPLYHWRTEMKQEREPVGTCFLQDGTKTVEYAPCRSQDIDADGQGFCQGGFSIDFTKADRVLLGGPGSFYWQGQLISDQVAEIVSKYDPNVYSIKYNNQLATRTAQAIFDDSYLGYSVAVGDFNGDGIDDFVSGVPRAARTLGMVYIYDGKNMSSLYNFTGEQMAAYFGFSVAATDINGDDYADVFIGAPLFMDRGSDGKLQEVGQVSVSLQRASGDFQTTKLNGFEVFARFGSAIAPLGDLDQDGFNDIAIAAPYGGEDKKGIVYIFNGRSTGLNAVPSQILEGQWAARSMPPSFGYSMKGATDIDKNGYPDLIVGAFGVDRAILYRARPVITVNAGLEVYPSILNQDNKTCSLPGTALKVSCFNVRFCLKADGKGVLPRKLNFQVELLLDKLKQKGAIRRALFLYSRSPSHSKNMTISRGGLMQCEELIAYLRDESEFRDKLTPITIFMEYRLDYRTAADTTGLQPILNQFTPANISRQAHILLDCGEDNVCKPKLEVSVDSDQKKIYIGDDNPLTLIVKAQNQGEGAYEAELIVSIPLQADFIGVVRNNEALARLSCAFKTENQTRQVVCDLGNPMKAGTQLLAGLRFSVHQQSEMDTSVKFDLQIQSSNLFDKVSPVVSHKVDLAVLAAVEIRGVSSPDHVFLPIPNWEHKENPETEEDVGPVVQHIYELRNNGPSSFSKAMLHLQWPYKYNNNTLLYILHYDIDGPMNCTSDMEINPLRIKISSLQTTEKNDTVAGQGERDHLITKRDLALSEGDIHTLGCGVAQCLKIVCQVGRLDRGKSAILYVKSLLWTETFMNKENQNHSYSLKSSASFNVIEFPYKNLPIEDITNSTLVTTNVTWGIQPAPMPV
T1 sequence (P18564 22-707 limits assumed): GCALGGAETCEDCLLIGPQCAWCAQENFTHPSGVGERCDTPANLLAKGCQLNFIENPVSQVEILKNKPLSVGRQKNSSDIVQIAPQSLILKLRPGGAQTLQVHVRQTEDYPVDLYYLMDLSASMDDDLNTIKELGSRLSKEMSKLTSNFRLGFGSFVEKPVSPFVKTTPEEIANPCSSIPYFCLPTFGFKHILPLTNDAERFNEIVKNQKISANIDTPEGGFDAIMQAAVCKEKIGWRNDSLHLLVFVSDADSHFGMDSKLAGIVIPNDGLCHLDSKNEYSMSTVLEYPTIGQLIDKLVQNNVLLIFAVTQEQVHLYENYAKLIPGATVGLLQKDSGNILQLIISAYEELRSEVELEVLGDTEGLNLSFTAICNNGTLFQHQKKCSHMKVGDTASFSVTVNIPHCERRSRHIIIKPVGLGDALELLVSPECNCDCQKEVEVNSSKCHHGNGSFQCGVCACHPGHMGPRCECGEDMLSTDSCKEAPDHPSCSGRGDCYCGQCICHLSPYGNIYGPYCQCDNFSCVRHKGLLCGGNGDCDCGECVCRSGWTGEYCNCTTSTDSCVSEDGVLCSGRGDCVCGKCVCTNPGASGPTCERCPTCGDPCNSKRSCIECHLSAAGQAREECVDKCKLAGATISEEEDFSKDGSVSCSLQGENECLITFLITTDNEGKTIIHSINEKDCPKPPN

Cc1cc(-c2ccc(NC(=O)[C@H](CCCCNC(=O)CCN3C(=O)CC(SCC(=O)NCC4CCC(C(=O)N[C@H](Cc5ccc6ccccc6c5)C(=O)NCCCC[C@H](NC(=O)N[C@@H](CCC(=O)O)C(=O)O)C(=O)O)CC4)C3=O)NC(=O)CN3CCN(CC(=O)O)CCN(CC(=O)O)CCN(CC(=O)O)CC3)c(C)c2)ccc1N=Nc1ccc2c(S(=O)(=O)O)cc(S(=O)(=O)O)c(N)c2c1O (stereo partly shown) [EB-ABM PSMA-617]
Kidney accumulation ([1]; 4 h): > 20 % ID/g
Tumor accumulation ([1]; from 4 h to 48 h): 65.6–77.3 % ID/g

Cc1cc(-c2ccc(NC(=O)CCC(=O)NCCCC[C@H](NC(=O)CN3CCN(CC(=O)O)CCN(CC(=O)O)CCN(CC(=O)O)CC3)C(N)=O)c(C)c2)ccc1N=Nc1ccc2c(S(=O)(=O)O)cc(S(=O)(=O)O)c(N)c2c1O [[^64Cu]3, [^64Cu]Cu DOTA-EB, metal not drawn]
Tumor-Kidney ratio [2]: 1.34 ±0.15
Tumor-Lg Intestines ratio [2]: 1.49 ±0.68
Tumor-Liver ratio [2]: 1.2–1.3
Tumor-Sm Intestines ratio [2]: 2.05 ±0.43
Tumor-Stomach ratio [2]: 2.52 ±0.58
Blood uptake [2]: 38.9 ± 10.4 % ID/g
Bone uptake [2]: 4.81 ± 0.79 % ID/g
Brain uptake [2]: 0.97 ± 0.19 % ID/g
BxPC-3 Tumor uptake [2]: 24.82 ± 0.90 % ID/g
Fecal Matter radioactivity [2]: 33.79 ± 0.90 % ID/g
Gall Bladder uptake [2]: 28.57 ± 10.67 % ID/g
Heart uptake [2]: 12.05 ± 2.69 % ID/g
Kidneys uptake [2]: 18.6 ± 1.4 % ID/g
Lg. Intestines uptake [2]: 12.75 ± 0.65 % ID/g
Liver uptake [2]: 22.01 ± 4.74 % ID/g
Lung uptake [2]: 19.40 ± 1.33 % ID/g
Muscle uptake [2]: 4.64 ± 1.40 % ID/g
Pancreas uptake [2]: 6.40 ± 1.03 % ID/g
Skin uptake [2]: 14.77 ± 1.82 % ID/g
Sm. Intestines uptake [2]: 12.45 ± 3.06 % ID/g
Spleen uptake [2]: 8.10 ± 1.19 % ID/g
Stomach uptake [2]: 10.16 ± 2.71 % ID/g
Urine radioactivity [2]: 63.25 ± 27.58 % ID/g
Blood uptake ([2]; listed as [64Cu]3): 38.88 ± 10.37 % ID/g
Kidneys uptake ([2]; listed as [64Cu]3): 18.59 ± 1.41 % ID/g
Tumor-Blood ratio ([2]; listed as [64Cu]3): 0.66 ±0.15
Tumor-Liver ratio ([2]; listed as [64Cu]3): 1.15 ±0.21
Tumor-Muscle ratio ([2]; listed as [64Cu]3): 5.58 ±1.49

NC(=O)[C@H](CCCCNC(=O)[C@H](CC(=O)O)NC(=O)CCCNC(=O)CCCc1ccc(I)cc1)NC(=O)CN1CCN(CC(=O)O)CCN(CC(=O)O)CCN(CC(=O)O)CC1 [[^64Cu]4, [^64Cu]Cu DOTA-IP, metal not drawn]
Tumor-Kidney ratio [2]: 1.83 ±0.19
Tumor-Lg Intestines ratio [2]: 2.83 ±0.36
Tumor-Liver ratio [2]: 1.2–1.3
Tumor-Sm Intestines ratio [2]: 2.31 ±0.27
Tumor-Stomach ratio [2]: 3.31 ±0.37
Blood uptake [2]: 9.5 ± 1.3 % ID/g
Bone uptake [2]: 1.19 ± 0.06 % ID/g
Brain uptake [2]: 0.36 ± 0.05 % ID/g
BxPC-3 Tumor uptake [2]: 7.99 ± 1.93 % ID/g
Fecal Matter radioactivity [2]: 2.54 ± 1.41 % ID/g
Gall Bladder uptake [2]: 10.23 ± 3.01 % ID/g
Heart uptake [2]: 3.07 ± 0.01 % ID/g
Kidneys uptake [2]: 4.34 ± 0.61 % ID/g and 4.3 % ID/g
Lg. Intestines uptake [2]: 2.90 ± 1.05 % ID/g
Liver uptake [2]: 6.21 ± 1.51 % ID/g
Lung uptake [2]: 5.01 ± 0.69 % ID/g
Muscle uptake [2]: 1.28 ± 0.03 % ID/g
Pancreas uptake [2]: 1.50 ± 0.09 % ID/g
Skin uptake [2]: 4.38 ± 0.77 % ID/g
Sm. Intestines uptake [2]: 3.53 ± 1.24 % ID/g
Spleen uptake [2]: 2.10 ±0.24 % ID/g
Stomach uptake [2]: 2.39 ± 0.31 % ID/g
Urine radioactivity [2]: 72.25 ± 35.13 % ID/g
Blood uptake ([2]; listed as [64Cu]4): 9.51 ± 1.32 % ID/g
Tumor-Blood ratio ([2]; listed as [64Cu]4): 0.83 ±0.09
Tumor-Liver ratio ([2]; listed as [64Cu]4): 1.29 ± 0.001
Tumor-Muscle ratio ([2]; listed as [64Cu]4): 6.25 ±1.37

Nc1nc2ncc(CNc3ccc(C(=O)N[C@@H](CCC(=O)O)C(=O)O)cc3)nc2c(=O)[nH]1 [folic acid]
Kidney accumulation ([3]; 4 h): 70 % ID/g
Tumor accumulation ([3]; 24 h p.i.): 7 % ID/g

O=C(O)CC[C@H](NC(=O)N[C@@H](CCCCNC(=O)[C@H](Cc1ccc2ccccc2c1)NC(=O)[C@H]1CC[C@H](CNC(=O)CN2CCN(CC(=O)O)CCN(CC(=O)O)CCN(CC(=O)O)CC2)CC1)C(=O)O)C(=O)O [non-ABM PSMA-617]
Tumor accumulation ([1]; 24 h): 38 % ID/g

DOTA-αvβ6-BP
IC50 [4]: 28 ± 3 nM

[NatCu]Cu DOTA-EB-αvβ6-BP [[^NatCu]1]
IC50 [5]: 14 ± 2 nM

[NatCu]Cu DOTA-IP-αvβ6-BP [[^NatCu]2]
IC50 [5]: 19 ± 5 nM

[^18F]AlF NOTA-IP-ABM-αvβ6-BP
Fold lower kidney retention than [18F]AlF NOTA-A20FMDV2-peptide [6]: > 3.5 fold

[^64Cu]Cu DOTA-αvβ6-BP
BxPC-3 Tumor uptake ([7]; 4 h, same BxPC-3 tumor model): 1.61 ± 0.70 % ID/g
Kidney accumulation ([7]; 4 h): 20.37 ± 1.67 % ID/g
Kidney accumulation ([7]; 48 h): 6.81 ± 1.36 % ID/g
Binding to serum albumin [8]: < 29%
Binding to serum albumin [9]: < 29%

[^64Cu]Cu NOTA-EB
Blood accumulation ([10]; 4 h): ~ 15 % ID/g
Blood accumulation ([10]; 1 d): ~ 10 % ID/g

[^64Cu]Cu NOTA-EB-cRGDfK
Fold improvement in tumor accumulation vs. [64Cu]Cu NOTA-cRGDfK [11]: > 16 fold
Tumor accumulation [11]: 16.6 % ID/g

[^64Cu]Cu NOTA-cRGDfK
Tumor accumulation [11]: < 1.1 % ID/g

[^177Lu]Lu DOTA-EB-TATE
Kidney accumulation ([12]; 4 h): ~ 30 % ID/g
Tumor accumulation [12]: 78.8 % ID/g
Kidney accumulation ([12]; 72 h): ~ 15 % ID/g
Fold increase in tumor dose delivery [13]: 7.9 fold

[^177Lu]Lu DOTA-TATE
Tumor accumulation [12]: 9.3 % ID/g
